Data reported in patent publication US20240043943A1, “METHODS AND COMPOSITIONS FOR PROTEASE REPORTER ASSAYS AND MODULATORS” (712 NORTH, INC., priority 2021, published 2024).
Entries after “also recorded” stand apart in the source; their conditions may differ. Counter-ions that a name gives are not always drawn. Like-named read-outs stand apart in the source and are kept apart here. Starred links: 1 amine or outer side, 2 acyl side, 3 side chain; linkers in the order of their positions; H or OH if unused. Positions of bridges follow the written chain, without caps; N, C: chain ends. Non-standard residues stand in square brackets, D forms with d. Residues, ends and D or L forms follow the SMILES beside them. Chains are numbered I, II in the order given. Actinocin(9to1) = Cc1c2oc3c(C)ccc(C(=O)[*:1])c3nc-2c(C(=O)[*:2])c(N)c1=O; NMeV = CN[C@H](C(=O)O)C(C)C; Sar = CNCC(=O)O

How the values were obtained:
OMA1 protease [1] = molecular target: T1, OMA1 protease (Homo sapiens, UniProt Q96E52); assay: Rep#15 / Luke-S1 OMA1 reporter bioluminescence assay in Hek293T cells; type: cell-based; design: The OMA1 enzyme is dormant under physiological cell culture conditions in these cells; endogenous in cells; host or cells: Hek293T cells, transiently or stably (Luke-S1 line, ATCC PTA-127022) expressing reporter #15; conditions: for OMA1 modulating properties: drugs identified with the OMA1 assays (FIG. 17, FIG. 10)
T1 sequence (Q96E52 144-524): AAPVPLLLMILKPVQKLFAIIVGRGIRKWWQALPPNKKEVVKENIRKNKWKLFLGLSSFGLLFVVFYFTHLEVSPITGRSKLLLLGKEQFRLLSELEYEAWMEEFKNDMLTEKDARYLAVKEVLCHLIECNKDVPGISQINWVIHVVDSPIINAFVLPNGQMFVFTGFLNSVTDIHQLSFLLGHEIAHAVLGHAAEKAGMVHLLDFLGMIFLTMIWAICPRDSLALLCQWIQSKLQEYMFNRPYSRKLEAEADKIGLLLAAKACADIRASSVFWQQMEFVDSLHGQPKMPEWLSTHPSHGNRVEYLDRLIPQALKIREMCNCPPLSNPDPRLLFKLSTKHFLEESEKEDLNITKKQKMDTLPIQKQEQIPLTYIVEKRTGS
From the text: Example 1 provides a nonlimiting example of generation and use of a reporter of present invention and illustrates its function. To this end, generation and use of reporter gene #01 (SEQ ID NO: 01) and reporter gene #15 (SEQ ID NO: 15) are described and their function compared to each other. The general design of a reporter of present invention is illustrated in FIG. 1A and its working principle in FIG. 1B. A reporter in general, and reporter gene #01 and reporter gene #15 in particular, can be generated as follows. DNA sequences of a reporter may be codon-optimized in silico or by any other way for expression in a suitable host. DNA sequences of reporter genes #01 and #15 were codon-optimized for expression in humans (SEQ ID NO: 02 and SEQ ID NO: 16, respectively). The (optimized) sequences were synthesized and cloned into a pcDNA3.1 expression vector under the control of a CMV promotor (see FIG. 1 for an illustration of such vector). Of course, an expression system and a host should match for best results. The host in this example were Hek293T cells, which were maintained under standard culture conditions in DMEM with 10% Fetal Bovine Serum and 1% Pen/Strep. For an experiment, Hek293T cells were seeded in opaque white tissue-culture treated 96-well plates at 80% confluency and transfected with vectors carrying reporter gene #01 and reporter gene #15 and 24 hours later incubated for 30 minutes at 37° C. in OptiMEM or in OptiMEM with 10 μM CCCP. After 30 minutes, the OptiMEM cell-culture media was replaced with luciferase substrate (furimazine, Promega) diluted 1:100 in OptiMEM, and bioluminescence was measured with a Fluoroskan Ascent FL (Thermo Scientific) using a 517 nm single-pass filter and 200 milliseconds integration time. […] Reporter #01 comprises a large part of OPA1's amino-terminus as mitochondrial targeting sequence, which is cleaved by the mitochondrial processing peptidase upon mitochondrial import (see Example 2). Reporter #15 was initially envisioned as a control for reporter #01. Reporter #15 therefore lacks the first 66 amino acids of reporter #01 believed to be essential for mitochondrial import.
Example 5 illustrates how mitochondrial toxicity can be measured with reporter and assays of present invention. The OMA1-OPA1 pathway basically serves as a “canary-in-the-coalmine” for a mitochondrial deterioration. […] Hek293T cells expressing reporter #01 and #15 were exposed to CCCP, tipranavir and sorafenib (in OptiMEM) for 30 minutes before the medium was replaced with furimazine (1:100), and bioluminescence measured.
The following non-limiting examples illustrate in more details the in vivo assessment of OMA1 protease activity utilizing an artificial luciferase reporter of present invention stably expressed in Hek293T cells.

OMA1 protease [2] = molecular target: T1, OMA1 protease; assay: Rep#01 OMA1 reporter bioluminescence assay in Hek293T cells; type: cell-based; design: The OMA1 enzyme is dormant under physiological cell culture conditions in these cells; endogenous in cells; host or cells: Hek293T cells, transiently or stably (Luke-S1 line, ATCC PTA-127022) expressing reporter #15; conditions: 30 minutes exposure, CCCP 10 μM
From the text: Example 1 provides a nonlimiting example of generation and use of a reporter of present invention and illustrates its function. To this end, generation and use of reporter gene #01 (SEQ ID NO: 01) and reporter gene #15 (SEQ ID NO: 15) are described and their function compared to each other. The general design of a reporter of present invention is illustrated in FIG. 1A and its working principle in FIG. 1B. A reporter in general, and reporter gene #01 and reporter gene #15 in particular, can be generated as follows. DNA sequences of a reporter may be codon-optimized in silico or by any other way for expression in a suitable host. DNA sequences of reporter genes #01 and #15 were codon-optimized for expression in humans (SEQ ID NO: 02 and SEQ ID NO: 16, respectively). The (optimized) sequences were synthesized and cloned into a pcDNA3.1 expression vector under the control of a CMV promotor (see FIG. 1 for an illustration of such vector). Of course, an expression system and a host should match for best results. The host in this example were Hek293T cells, which were maintained under standard culture conditions in DMEM with 10% Fetal Bovine Serum and 1% Pen/Strep. For an experiment, Hek293T cells were seeded in opaque white tissue-culture treated 96-well plates at 80% confluency and transfected with vectors carrying reporter gene #01 and reporter gene #15 and 24 hours later incubated for 30 minutes at 37° C. in OptiMEM or in OptiMEM with 10 μM CCCP. After 30 minutes, the OptiMEM cell-culture media was replaced with luciferase substrate (furimazine, Promega) diluted 1:100 in OptiMEM, and bioluminescence was measured with a Fluoroskan Ascent FL (Thermo Scientific) using a 517 nm single-pass filter and 200 milliseconds integration time. […]
Example 5 illustrates how mitochondrial toxicity can be measured with reporter and assays of present invention. […] Hek293T cells expressing reporter #01 and #15 were exposed to CCCP, tipranavir and sorafenib (in OptiMEM) for 30 minutes before the medium was replaced with furimazine (1:100), and bioluminescence measured.

mitochondria = conditions: FDA labels, cited from earlier work
OPA1 = conditions: literature; cited from earlier work
OMA1 protease [3] = molecular target: T1, OMA1 protease; conditions: literature; cited from earlier work
OMA1 protease [4] = molecular target: T1, OMA1 protease; assay: Rep#15 assay with phenanthroline preincubation before CCCP (OMA1 inhibitor control); type: cell-based; design: The OMA1 enzyme is dormant under physiological cell culture conditions in these cells; endogenous in cells; host or cells: Hek293T cells, transiently or stably (Luke-S1 line, ATCC PTA-127022) expressing reporter #15; conditions: 500 μM phenanthroline 1 hour, then 10 μM CCCP 30 minutes
Protocol: Example 2 refers to FIG. 4 and illustrates hydrolysis of reporter #01 and reporter #15. For this example, transfected cells were selected by puromycin. Reporter cells were exposed for 30 minutes to 10 μM CCCP before being harvested in RIPA buffer and subjected to 12% SDS-PAGE followed by Western-blotting. […] Full-length reporter #01 has a predicted size of 39.6 kDa but was not detected in Western blots. […] At the same time, reporter #15 is not processed upon import, but migrated at its expected size of 31.9 kDa. (Example 7 establishes mitochondrial import by showing co-migration of reporter #15 with OPA1 and OMA1 in mitochondria-enriched fractions.) Reporter #15 appears to be more abundant and stable, which may explain its better performance. […] This provides additional evidence that reporter #15 is indeed localized in mitochondria where it is recognized and hydrolyzed by OMA1. […] Therefore, phenanthroline was used as a positive control in the reporter assay. If reporter #15 indeed is cleaved by OMA1, then phenanthroline should prevent this at least to a certain extend by inhibiting OMA1 and accordingly preserving the signal. Hek293T cells were transfected with reporter gene #15 as described in the preceding example. […] After 30 minutes, the medium was replaced with furimazine (1:100 in OptiMEM), and bioluminescence measured as described in Example 1.

C=CC(=O)Nc1cc(Nc2nccc(-c3cn(C)c4ccccc34)n2)c(OC)cc1N(C)CCN(C)C [Osimertinib]
OMA1 modulating properties (OMA1 protease [1]): OMA1 modulating properties

Cc1cc(Nc2ncc(Cl)c(Nc3ccccc3S(=O)(=O)C(C)C)n2)c(OC(C)C)cc1C1CCNCC1 [Ceritinib]
OMA1 modulating properties (OMA1 protease [1]): OMA1 modulating properties

CC(C)(O)CNc1nc(Nc2ccnc(C(F)(F)F)c2)nc(-c2cccc(C(F)(F)F)n2)n1 [Enasidenib]
OMA1 modulating properties (OMA1 protease [1]): OMA1 modulating properties

CNC(=O)c1cc(Oc2ccc(NC(=O)Nc3ccc(Cl)c(C(F)(F)F)c3)cc2)ccn1 [sorafenib, Sorafenib]
bioluminescence signal of reporter #01 (OMA1 protease [2]): significantly reduced bioluminescence | bioluminescence signal of reporter #01 (OMA1 protease [2]; listed as Sorafenib): comparable effects | mitochondrial toxicity (mitochondria): exhibit mitochondrial toxicity | bioluminescence signal of reporter #15 (OMA1 protease [1]; Hek293T, 30 minutes exposure, CCCP 10 μM): significantly reduced signal; also recorded: significantly reduced bioluminescence | OMA1 modulating properties (OMA1 protease [1]): OMA1 modulating properties | OPA1 cleavage (OPA1): can promote OPA1 cleavage

CC/C(=C(\c1ccccc1)c1ccc(OCCN(C)C)cc1)c1ccccc1 [Tamoxifen citrate]
OMA1 modulating properties (OMA1 protease [1]): OMA1 modulating properties

Cc1cc(Nc2ncnc3ccc(NC4=NC(C)(C)CO4)cc23)ccc1Oc1ccn2ncnc2c1 [Tucatinib]
OMA1 modulating properties (OMA1 protease [1]): OMA1 modulating properties

CNC(=O)c1cc(Oc2ccc(NC(=O)Nc3ccc(Cl)c(C(F)(F)F)c3)c(F)c2)ccn1 [Regorafenib]
OMA1 modulating properties (OMA1 protease [1]): OMA1 modulating properties

CN(C)C(=O)c1cc2cnc(Nc3ccc(N4CCNCC4)cn3)nc2n1C1CCCC1 [Ribociclib]
OMA1 modulating properties (OMA1 protease [1]): OMA1 modulating properties

CCC[C@@]1(CCc2ccccc2)CC(O)=C([C@H](CC)c2cccc(NS(=O)(=O)c3ccc(C(F)(F)F)cn3)c2)C(=O)O1 [tipranavir]
mitochondrial toxicity (mitochondria): exhibit mitochondrial toxicity | mitochondrial toxicity (mitochondria; listed as Tipranavir): cause mitochondrial toxicity

CN1CCN(c2ccc(C(=O)Nc3n[nH]c4ccc(Cc5cc(F)cc(F)c5)cc34)c(NC3CCOCC3)c2)CC1 [Entrectinib]
OMA1 modulating properties (OMA1 protease [1]): OMA1 modulating properties

N.N.[Cl][Pt][Cl] [cisplatin]
OPA1 cleavage (OPA1): can promote OPA1 cleavage

CCCCC(=O)OCC(=O)[C@]1(O)Cc2c(O)c3c(c(O)c2[C@@H](O[C@H]2C[C@H](NC(=O)C(F)(F)F)[C@H](O)[C@H](C)O2)C1)C(=O)c1c(OC)cccc1C3=O [Valrubicin]
OMA1 modulating properties (OMA1 protease [1]): OMA1 modulating properties

Clc1ccc(C(c2ccccc2Cl)C(Cl)Cl)cc1 (stereo not drawn) [Mitotane]
OMA1 modulating properties (OMA1 protease [1]): OMA1 modulating properties

O=C(c1ccc(OCCN2CCCCC2)cc1)c1c(-c2ccc(O)cc2)sc2cc(O)ccc12 [Raloxifene]
OMA1 modulating properties (OMA1 protease [1]): OMA1 modulating properties

CC(=O)[C@]1(O)Cc2c(O)c3c(c(O)c2[C@@H](O[C@H]2C[C@H](N)[C@H](O)[C@H](C)O2)C1)C(=O)c1ccccc1C3=O [Idarubicin hydrochloride]
OMA1 modulating properties (OMA1 protease [1]): OMA1 modulating properties

O=C(/C=C\n1cnc(-c2cc(C(F)(F)F)cc(C(F)(F)F)c2)n1)NNc1cnccn1 [Selinexor]
OMA1 modulating properties (OMA1 protease [1]): OMA1 modulating properties

c1cnc2c(c1)ccc1cccnc12 [phenanthroline]
effect on OMA1 protease (OMA1 protease [3]): can inhibit OMA1 protease in vitro | bioluminescence signal of reporter #15 after CCCP with inhibitor pretreatment (OMA1 protease [4]): prevented reporter #15 deactivation; also recorded: largely preserved

Dabrafenib mesylate
OMA1 modulating properties (OMA1 protease [1]): OMA1 modulating properties

Cc1ccc(NC(=O)c2ccc(CN3CCN(C)CC3)cc2)cc1Nc1nccc(-c2cccnc2)n1 [Imatinib]
OMA1 modulating properties (OMA1 protease [1]): OMA1 modulating properties

COc1cccc2c1C(=O)c1c(O)c3c(c(O)c1C2=O)C[C@@](O)(C(C)=O)C[C@@H]3O[C@H]1C[C@H](N)[C@H](O)[C@H](C)O1 [Daunorubicin hydrochloride]
OMA1 modulating properties (OMA1 protease [1]): OMA1 modulating properties

Cc1c2oc3c(C)ccc(C(=O)N[C@@H]4C(=O)N[C@H](C(C)C)C(=O)N5CCC[C@H]5C(=O)N(C)CC(=O)N(C)[C@@H](C(C)C)C(=O)O[C@@H]4C)c3nc-2c(C(=O)N[C@@H]2C(=O)N[C@H](C(C)C)C(=O)N3CCC[C@H]3C(=O)N(C)CC(=O)N(C)[C@@H](C(C)C)C(=O)O[C@@H]2C)c(N)c1=O [Dactinomycin] (I: T[dV]P[Sar][NMeV] / II: T[dV]P[Sar][NMeV]; ester I:1-I:C, II:1-II:C; linker I:N-II:N via Actinocin(9to1))
OMA1 modulating properties (OMA1 protease [1]): OMA1 modulating properties

COc1cccc2c1C(=O)c1c(O)c3c(c(O)c1C2=O)C[C@@](O)(C(=O)CO)C[C@@H]3O[C@H]1C[C@H](N)[C@H](O)[C@H](C)O1 [Doxorubicin hydrochloride]
OMA1 modulating properties (OMA1 protease [1]): OMA1 modulating properties

FC(F)(F)c1ccc(CNc2ccc(Cc3c[nH]c4ncc(Cl)cc34)cn2)cn1 [Pexidartinib]
OMA1 modulating properties (OMA1 protease [1]): OMA1 modulating properties
